pEC50: −log10 of the molar value.
Columns and labels:
human TGR5 (h-TGR5) = target: T1, human TGR5 (h-TGR5) (Homo sapiens, UniProt Q8TDU6); test: TGR5/CRE-Luciferase Assay; assay type: cell-based; settings: HEK 293 hTGR5/CRE-Luc cells, 6 hours incubation, read-out: CRE-Luc Agonist (EC50)
T1 sequence (Q8TDU6 1-330): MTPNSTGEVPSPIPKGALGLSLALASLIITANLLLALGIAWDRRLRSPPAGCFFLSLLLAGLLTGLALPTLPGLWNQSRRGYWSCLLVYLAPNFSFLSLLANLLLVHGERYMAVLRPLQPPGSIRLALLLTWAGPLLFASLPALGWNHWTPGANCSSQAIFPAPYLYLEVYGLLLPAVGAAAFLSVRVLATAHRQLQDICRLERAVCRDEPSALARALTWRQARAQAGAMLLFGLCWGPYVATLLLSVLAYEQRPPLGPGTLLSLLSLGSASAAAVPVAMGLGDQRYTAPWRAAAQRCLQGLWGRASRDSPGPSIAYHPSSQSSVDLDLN
Method: HEK 293 cells stably expressing human TGR5 (h-TGR5) or mouse TGR5 (m-TGR5) were generated from HEK 293 CRE-Luciferase cells. The day before the assay, HEK 293 hTGR5/CRE-Luc cells were plated in DMEM in a 384 well assay plate at a density of 25 k cells/45 μL per well and grown for 18-20 hours. Compounds were serially diluted in DMEM containing 5% DMSO and 5 µL of compound or media alone was transferred to each well and plates were incubated for 6 hours. Following incubation, 30 μL of lysis/luciferase buffer was added to each well. The luciferase activity was then measured on the EnVision™ plate reader and the dose response data was analyzed using ActivityBase.
(§1) In the following tables, ECso values determined according to the TGR5 cAMP Assay are noted (cAMP); EC50 values determined according to the TGR5/CRE-Luciferiase Assay are noted (CRE-Luc).

h-TGR5 = target: T2, h-TGR5 (Homo sapiens, UniProt Q8TDU6); test: TGR5 cAMP Assay using Cisbio cAMP Dynamic 2 htrf assay kit; assay type: cell-based; settings: hTGR5CRE-luc HEK 293 cells
T2 sequence (Q8TDU6 1-330): T1 sequence (Q8TDU6 1-330)
Method: Compounds were diluted in DPBS with 5% DMSO (8-point serial dilution by half logs) in a 96-well plate and 1 μL was transferred to a 384-well assay plate in quadruplicate. The d2-cAMP and anti-cAMP Ab-cryptate stock solution were prepared as per the instructions in the Cisbio™ (Bedford, Mass.) kit. Cells (hTGR5CRE-luc HEK 293 and mTGR5CRE-luc HEK 293) were harvested using cell dissociation buffer and resuspended in DPBS. Cells were adjusted to 0.44×10^6 cells/ml followed by addition of IBMX to a final concentration of 0.5 mM. The cells were then mixed with d2-cAMP solution (7.1 mL cells+100 ul d2-cAMP) and 4000 cells (9 μL) were transferred to each well of the 384-well assay plate. Cells without d2-cAMP were added to eight wells as a negative control. The plate was covered and incubated at room temp for 30 min. Then 10 μL of Ab-cryptate solution was added to each well of the assay plate and incubated for 1 hr. The plate was read on an EnVision™ plate reader (Perkin-Elmer, Waltham, Mass.) and the DeltaF value was calculated as per the instructions in the Cisbio™ kit.
as §1

Structure (SMILES)	pEC50 (human TGR5 (h-TGR5))	pEC50 (h-TGR5)
CCN(CCC[N+](C)(C)C)S(=O)(=O)c1cc(F)c(CSc2ncc(C(C)(C)c3ccc(F)c(OC)c3)n2-c2ccc(F)cc2)c(Cl)c1 [Compound 14j, 3-[{[3-chloro-5-fluoro-4-({[5-{1-[4-fluoro-3-(methyloxy)phenyl]-1-methylethyl}-1-(4-fluorophenyl)-1H-imidazol-2-yl]thio}methyl)phenyl]sulfonyl} (ethyl)amino]-N,N,N-trimethylpropan-1-aminium]	> 7.00	> 7.00
COc1cc(C(C)(C)c2cnc(SCc3c(F)cc(OCC[N+](C)(C)C)cc3F)n2-c2ccc(F)cc2)ccc1Cl [Compound 20, 2-(4-((5-(2-(4-Chloro-3-methoxyphenyl)propan-2-yl)-1-(4-fluorophenyl)-1H-imidazol-2-ylthio)methyl)-3,5-difluorophenoxy)-N,N,N-trimethylethanaminium 2,2,2-trifluoroacetate]	> 7.00	> 7.00
COc1cc(C(C)(C)c2cnc(SCc3c(F)cc(S(=O)(=O)NCCC[n+]4ccn(C)c4)cc3Cl)n2-c2ccc(F)cc2)ccc1F [Compound 10, 3-(3-(3-chloro-5-fluoro-4-((5-(2-(4-fluoro-3-methoxyphenyl)propan-2-yl)-1-(4-fluorophenyl)-1H-imidazol-2-ylthio)methyl)phenylsulfonamido)propyl)-1-methyl-1H-imidazol-3-ium methanesulfonate]	> 7.00	> 7.00
COc1cc(C(C)(C)c2cnc(SCc3c(F)cc(S(=O)(=O)N4CCC[C@H]([N+](C)(C)C)C4)cc3Cl)n2-c2ccc(F)cc2)ccc1Cl [Compound 11h, (3S)-1-{[3-chloro-4-({[5-{1-[4-chloro-3-(methyloxy)phenyl]-1-methylethyl}-1-(4-fluorophenyl)-1H-imidazol-2-yl]thio}methyl)-5-fluorophenyl]sulfonyl}-N,N,N-trimethylpiperidin-3-aminium]	> 7.00	> 7.00
COc1cc(C(C)(C)c2cnc(SCc3c(F)cc(S(=O)(=O)NCCC[N+](C)(C)C)cc3F)n2-c2ccc(F)cc2)ccc1Cl [Example 6, 3-(4-((5-(2-(4-Chloro-3-methoxyphenyl)propan-2-yl)—(4-fluorophenyl)-1H-imidazol-2-ylthio)methyl)-3,5-difluorophenylsulfonamido)-N,N,N-trimethylpropan-1-aminium 2,2,2-trifluoroacetate]	> 7.00	> 7.00
COc1cc(C(C)(C)c2nnc(SCc3c(F)cc(S(=O)(=O)NCCC[N+](C)(C)C)cc3F)n2-c2ccc(F)cc2)ccc1Cl [Example 6d, 3-({[4-({[5-{1-[4-chloro-3-(methyloxy)phenyl]-1-methylethyl}-4-(4-fluorophenyl)-4H-1,2,4-triazol-3-yl]thio}methyl)-3,5-difluorophenyl]sulfonyl}amino)-N,N,N-trimethylpropan-1-aminium]	> 7.00	> 7.00
COc1cc(C(C)(C)c2cnc(SCc3c(F)cc(C(=O)NCC[N+]4(C)CC[N+](C)(C)CC4)cc3Cl)n2-c2ccc(F)cc2)ccc1Cl [Example 2i, 1-[2-({[3-chloro-4-({[5-{1-[4-chloro-3-(methyloxy)phenyl]-1-methylethyl}-1-(4-fluorophenyl)-1H-imidazol-2-yl]thio}methyl)-5-fluorophenyl]carbonyl}amino)ethyl]-1,4,4-trimethylpiperazinediium]	6.00 to 7.00	6.00 to 7.00
COc1cc(C(C)(C)c2cnc(SCc3c(F)cc(S(=O)(=O)NCCC[N+](C)(C)C)cc3F)n2-c2ccc(F)cc2)ccc1F [Example 6f, 3-({[3,5-difluoro-4-({[5-{1-[4-fluoro-3-(methyloxy)phenyl]-1-methylethyl}-1-(4-fluorophenyl)-1H-imidazol-2-yl]thio}methyl)phenyl]sulfonyl}amino)-N,N,N-trimethylpropan-1-aminium]	> 7.00	> 7.00
COc1cc(C(C)(C)c2cnc(SCc3c(F)cc(S(=O)(=O)N(CCC[N+](C)(C)C)CCC(=O)O)cc3Cl)n2-c2ccc(F)cc2)ccc1Cl [Compound 14u, 3-[(2-carboxyethyl){[3-chloro-4-({[5-{1-[4-chloro-3-(methyloxy)phenyl]-1-methylethyl}-1-(4-fluorophenyl)-1H-imidazol-2-yl]thio}methyl)-5-fluorophenyl)sulfonyl}amino]-N,N,N-trimethylpropan-1-aminium]	> 7.00	> 7.00
COc1cc(C(C)(C)c2cnc(SCc3c(F)cc(S(=O)(=O)N4CCC[C@@H]([N+](C)(C)C)C4)cc3Cl)n2-c2ccc(F)cc2)ccc1Cl [Compound 11g, (3R)-1-{[3-chloro-4-({[5-{1-[4-chloro-3-(methyloxy)phenyl]-1-methylethyl}-1-(4-fluorophenyl)-1H-imidazol-2-yl]thio}methyl)-5-fluorophenyl]sulfonyl}-N,N,N-trimethylpiperidin-3-aminium]	> 7.00	> 7.00
COc1cc(C(C)(C)c2cnc(SCc3c(F)cc(S(=O)(=O)NCCC[N+](C)(C)C)cc3Cl)n2-c2ccc(F)cc2)ccc1F [Example 6a, 3-({[3-chloro-5-fluoro-4-({[5-{1-[4-fluoro-3-(methyloxy)phenyl]-1-methylethyl}-1-(4-fluorophenyl)-1H-imidazol-2-yl]thio}methyl)phenyl]sulfonyl}amino)-N,N,N-trimethylpropan-1-aminium]	> 7.00	> 7.00
COc1cc(C(C)(C)c2cnc(SCc3c(F)cc(C(=O)N4CCC([N+](C)(C)C)CC4)cc3Cl)n2-c2ccc(F)cc2)ccc1Cl [Example 2l, 1-{[3-chloro-4-({[5-{1-[4-chloro-3-(methyloxy)phenyl]-1-methylethyl}-1-(4-fluorophenyl)-1H-imidazol-2-yl]thio}methyl)-5-fluorophenyl]carbonyl}-N,N,N-trimethylpiperidin-4-aminium]	> 7.00	> 7.00
COc1cc(C(C)(C)c2cnc(SCc3c(F)cc(S(=O)(=O)N(C)CCC[N+](C)(C)C)cc3F)n2-c2ccc(F)cc2)ccc1Cl [Compound 12a, 3-(4-((5-(2-(4-chloro-3-methoxyphenyl)propan-2-yl)-1-(4-fluorophenyl)-1H-imidazol-2-ylthio)methyl)-3,5-difluoro-N-methylphenylsulfonamido)-N,N,N-trimethylpropan-1-aminium 2,2,2-trifluoroacetate]	> 7.00	> 7.00
COc1cc(C(C)(C)c2cnc(SCc3c(F)cc(S(=O)(=O)N(CCCCC[N+](C)(C)C)[C@H](C)C(=O)O)cc3Cl)n2-c2ccc(F)cc2)ccc1Cl [Compound 14ad, 5-([(1R)-1-carboxyethyl]{[3-chloro-4-({[5-{1-[4-chloro-3-(methyloxy)phenyl]-1-methylethyl}-1-(4-fluorophenyl)-1H-imidazol-2-yl]thio}methyl)-5-fluorophenyl]sulfonyl}amino)-N,N,N-trimethylpentan-1-aminium]	> 7.00	> 7.00
CC(C)(c1ccc(Cl)c(O)c1)c1cnc(SCc2c(F)cc(S(=O)(=O)NCCC[N+](C)(C)C)cc2F)n1-c1ccc(F)cc1 [Compound 13a, 3-(4-((5-(2-(4-chloro-3-hydroxyphenyl)propan-2-yl)-1-(4-fluorophenyl)-1H-imidazol-2-ylthio)methyl)-3,5-difluorophenylsulfonamido)-N,N,N-trimethylpropan-1-aminium 2,2,2-trifluoroacetate]	6.00 to 7.00	6.00 to 7.00
COc1cc(C(C)(C)c2cnc(SCc3c(F)cc(C(=O)N[C@H]4CCC[N+](C)(C)C4)cc3Cl)n2-c2ccc(F)cc2)ccc1F [Example 2p, (3S)-3-({[3-chloro-5-fluoro-4-({[5-{1-[4-fluoro-3-(methyloxy)phenyl]-1-methylethyl}-1-(4-fluorophenyl)-1H-imidazol-2-yl]thio}methyl)phenyl]carbonyl}amino)-1,1-dimethylpiperidinium]	> 7.00	> 7.00
CC(C)(c1ccc2onc(N)c2c1)c1cnc(SCc2c(F)cc(C(=O)NCC[N+](C)(C)C)cc2Cl)n1-c1ccc(F)cc1 [Example 1c, 2-[({4-[({5-[1-(3-amino-1,2-benzisoxazol-5-yl)-1-methylethyl]-1-(4-fluorophenyl)-1H-imidazol-2-yl}thio)methyl]-3-chloro-5-fluorophenyl}carbonyl)amino]-N,N,N-trimethylethanaminium]	> 7.00	> 7.00
